Target: T1, KRas-G12D (Homo sapiens, UniProt P01116, G12D)
T1 construct: insert the HiBiT tag onto the N-terminus of one or more of the endogenous KRas alleles; host or cells: AsPC-1 HiBiT-KRasG12D knock-in clone (one tagged allele, two untagged KRasG12D alleles)
Assay: HiBiT Degradation Assay (G12D), AsPC-1 HiBiT-KRasG12D cells, 24 hr
Type: cell-based
Details: for Dmax: ASPC1, AsPC-1 cells, maximum degradation observed; for DC50: AsPC-1 cells
Outline: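 AsPC-1 cells with CRISPR N-terminal HiBiT knock-in on one endogenous KRasG12D allele, treated 24 hr at 37° C with compound titrations in 0.5% DMSO. Lytic HiBiT luminescence normalized to DMSO, fitted to a 4-parameter model for DC50 and Dmax. Parallel alamar blue (4 hr) checked viability.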

T1 sequence (P01116 1-188 isoform P01116-2 G12D): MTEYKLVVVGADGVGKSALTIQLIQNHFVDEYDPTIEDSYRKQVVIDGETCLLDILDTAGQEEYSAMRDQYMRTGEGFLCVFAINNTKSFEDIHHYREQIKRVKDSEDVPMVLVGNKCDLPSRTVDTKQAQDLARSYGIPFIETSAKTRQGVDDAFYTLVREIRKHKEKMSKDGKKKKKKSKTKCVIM

Row | SMILES | Dmax | DC50
1 | CCc1c(F)ccc2cc(O)cc(-c3ncc4c(N5CC6CCC(C5)N6)nc(OCCN5CCC6(CC5)CCN(CC5CCN(c7ccc8c(c7)n(C)c(=O)n8C7CCC(=O)NC7=O)CC5)CC6)nc4c3F)c12 (centres unmarked) [Compound 171, 3-(5-{4-[(9-{2-[(4-{3,8-diazabicyclo[3.2.1]octan-3-yl}-7-(8-ethyl-7-fluoro-3-hydroxynaphthalen-1-yl)-8-fluoropyrido[4,3-d]pyrimidin-2-yl)oxy]ethyl}-3,9-diazaspiro[5.5]undecan-3-yl)methyl]piperidin-1-yl}-3-methyl-2-oxo-2,3-dihydro-1H-1,3-benzodiazol-1-yl)piperidine-2,6-dione] | > 70% | < 5.1 µM
2 | CCc1c(F)ccc2cc(O)cc(-c3ncc4c(N5CC6CCC(C5)N6)nc(OCCN5CCC(CC6CCN(CC7CCN(c8cccc9c8n(C)c(=O)n9C8CCC(=O)NC8=O)CC7)CC6)CC5)nc4c3F)c12 (centres unmarked) [Compound 172, 3-{4-[4-({4-[(1-{2-[(4-{3,8-diazabicyclo[3.2.1]octan-3-yl}-7-(8-ethyl-7-fluoro-3-hydroxynaphthalen-1-yl)-8-fluoropyrido[4,3-d]pyrimidin-2-yl)oxy]ethyl}piperidin-4-yl)methyl]piperidin-1-yl}methyl)piperidin-1-yl]-3-methyl-2-oxo-2,3-dihydro-1H-1,3-benzodiazol-1-yl}piperidine-2,6-dione] | > 70% | < 5.1 µM
3 | C#Cc1c(F)ccc2cc(O)cc(-c3ncc4c(N5CC6CCC(C5)N6)nc(OCCN5CCN(CC6CCN(CC7CCN(c8ccc9c(c8)n(C)c(=O)n9C8CCC(=O)NC8=O)CC7)CC6)CC5)nc4c3F)c12 (centres unmarked) [Compound 173, 3-{5-[4-({4-[(4-{2-[(4-{3,8-diazabicyclo[3.2.1]octan-3-yl}-7-(8-ethynyl-7-fluoro-3-hydroxynaphthalen-1-yl)-8-fluoropyrido[4,3-d]pyrimidin-2-yl)oxy]ethyl}piperazin-1-yl)methyl]piperidin-1-yl}methyl)piperidin-1-yl]-3-methyl-2-oxo-2,3-dihydro-1H-1,3-benzodiazol-1-yl}piperidine-2,6-dione] | > 70% | < 5.1 µM
4 | C#Cc1c(F)ccc2cc(O)cc(-c3ncc4c(N5CC6CCC(C5)N6)nc(OCCN5CCN(CC6CCN(CC7CCN(c8ccc9c(c8F)CN(C8CCC(=O)NC8=O)C9=O)CC7)CC6)CC5(C)C)nc4c3F)c12 (centres unmarked) [Compound 174, 3-{5-[4-({4-[(4-{2-[(4-{3,8-diazabicyclo[3.2.1]octan-3-yl}-7-(8-ethynyl-7-fluoro-3-hydroxynaphthalen-1-yl)-8-fluoropyrido[4,3-d]pyrimidin-2-yl)oxy]ethyl}-3,3-dimethylpiperazin-1-yl)methyl]piperidin-1-yl}methyl)piperidin-1-yl]-4-fluoro-1-oxo-2,3-dihydro-1H-isoindol-2-yl}piperidine-2,6-dione] | > 70% | < 5.1 µM
5 | C#Cc1c(F)ccc2cc(O)cc(-c3ncc4c(N5CC6CCC(C5)N6)nc(OCCN5CCC(CC6CCN(c7ccc8c(c7)n(C(C)C)c(=O)n8C7CCC(=O)NC7=O)CC6)CC5)nc4c3F)c12 (centres unmarked) [Compound 175, 3-(5-{4-[(1-{2-[(4-{3,8-diazabicyclo[3.2.1]octan-3-yl}-7-(8-ethynyl-7-fluoro-3-hydroxynaphthalen-1-yl)-8-fluoropyrido[4,3-d]pyrimidin-2-yl)oxy]ethyl}piperidin-4-yl)methyl]piperidin-1-yl}-2-oxo-3-(propan-2-yl)-2,3-dihydro-1H-1,3-benzodiazol-1-yl)piperidine-2,6-dione] | > 70% | < 5.1 µM
6 | C#Cc1c(F)ccc2cc(O)cc(-c3ncc4c(N5CC6CCC(C5)N6)nc(OC[C@@H]5CC[C@@H](CN6CCN(c7ccc8c(c7)n(C(C)C)c(=O)n8C7CCC(=O)NC7=O)CC6)N5C)nc4c3F)c12 (stereo partly drawn) [Compound 176, 3-[5-(4-{[(2S,5S)-5-{[(4-{3,8-diazabicyclo[3.2.1]octan-3-yl}-7-(8-ethynyl-7-fluoro-3-hydroxynaphthalen-1-yl)-8-fluoropyrido[4,3-d]pyrimidin-2-yl)oxy]methyl}-1-methylpyrrolidin-2-yl]methyl}piperazin-1-yl)-2-oxo-3-(propan-2-yl)-2,3-dihydro-1H-1,3-benzodiazol-1-yl]piperidine-2,6-dione] | > 70% | < 5.1 µM
7 | CCc1c(F)ccc2cc(O)cc(-c3ncc4c(N5CC6CCC(C5)N6)nc(OC[C@@H]5C[C@@H](OC6CCN(CC7CCN(c8ccc9c(c8Cl)CN(C8CCC(=O)NC8=O)C9=O)CC7)CC6)CN5C)nc4c3F)c12 (stereo partly drawn) [Compound 177, 3-(4-chloro-5-{4-[(4-{[(3R,5S)-5-{[(4-{3,8-diazabicyclo[3.2.1]octan-3-yl}-7-(8-ethyl-7-fluoro-3-hydroxynaphthalen-1-yl)-8-fluoropyrido[4,3-d]pyrimidin-2-yl)oxy]methyl}-1-methylpyrrolidin-3-yl]oxy}piperidin-1-yl)methyl]piperidin-1-yl}-1-oxo-2,3-dihydro-1H-isoindol-2-yl)piperidine-2,6-dione] | > 70% | < 5.1 µM
8 | CCc1c(F)ccc2cc(O)cc(-c3ncc4c(N5CC6CCC(C5)N6)nc(OC[C@@H]5C[C@@H](OC6CCN(CC7CCN(c8ccc9c(c8F)CN(C8CCC(=O)NC8=O)C9=O)CC7)CC6)CN5C)nc4c3F)c12 (stereo partly drawn) [Compound 178, 3-(5-{4-[(4-{[(3R,5S)-5-{[(4-{3,8-diazabicyclo[3.2.1]octan-3-yl}-7-(8-ethyl-7-fluoro-3-hydroxynaphthalen-1-yl)-8-fluoropyrido[4,3-d]pyrimidin-2-yl)oxy]methyl}-1-methylpyrrolidin-3-yl]oxy}piperidin-1-yl)methyl]piperidin-1-yl}-4-fluoro-1-oxo-2,3-dihydro-1H-isoindol-2-yl)piperidine-2,6-dione] | > 70% | < 5.1 µM
9 | CCc1c(F)ccc2cc(O)cc(-c3ncc4c(N5CC6CCC(C5)N6)nc(OCCN5CCC(C)(CC6CCN(CC7CCN(c8ccc9c(c8)n(C)c(=O)n9C8CCC(=O)NC8=O)CC7)CC6)CC5)nc4c3F)c12 (centres unmarked) [Compound 179, 3-{5-[4-({4-[(1-{2-[(4-{3,8-diazabicyclo[3.2.1]octan-3-yl}-7-(8-ethyl-7-fluoro-3-hydroxynaphthalen-1-yl)-8-fluoropyrido[4,3-d]pyrimidin-2-yl)oxy]ethyl}-4-methylpiperidin-4-yl)methyl]piperidin-1-yl}methyl)piperidin-1-yl]-3-methyl-2-oxo-2,3-dihydro-1H-1,3-benzodiazol-1-yl}piperidine-2,6-dione] | > 70% | < 5.1 µM
10 | CCc1c(F)ccc2cc(O)cc(-c3ncc4c(N5CC6CCC(C5)N6)nc(OCCN5CCC(C)(CN6CCN(CC7CCN(c8ccc9c(c8)n(C)c(=O)n9C8CCC(=O)NC8=O)CC7)CC6)CC5)nc4c3F)c12 (centres unmarked) [Compound 180, 3-{5-[4-({4-[(1-{2-[(4-{3,8-diazabicyclo[3.2.1]octan-3-yl}-7-(8-ethyl-7-fluoro-3-hydroxynaphthalen-1-yl)-8-fluoropyrido[4,3-d]pyrimidin-2-yl)oxy]ethyl}-4-methylpiperidin-4-yl)methyl]piperazin-1-yl}methyl)piperidin-1-yl]-3-methyl-2-oxo-2,3-dihydro-1H-1,3-benzodiazol-1-yl}piperidine-2,6-dione] | > 70% | < 5.1 µM

Reference: US12448399B2, “Cereblon-based KRAS degrading PROTACs and uses related thereto” (Arvinas Operations, Inc., priority 2023, dated 2025)
